According to patent publication US10585102B2, “Characterization of cancer using detection of activated leukocyte cell adhesion molecule (ALCAM) shedding” (Vanderbilt University, priority 2012, dated 2020):
Read-outs that look alike come from different tables or passages of the source.

Columns and labels:
Rap1A = assay: Rap1 activation assay (GTP-bound Rap1A pull-down, immunoblot); type: cell-based; conditions: HEp3 cells; PKCα inhibited by pharmacological means
Description: Rap1 activation was analyzed using the Rap1 activation kit (Chemicon). All treatments were performed in the presence of serum free/insulin free media. Cells to be assayed were washed with ice cold PBS and lysed in RIPA like Rap1 buffer (10% glycerol, 50 mM Tris/HCl, 150 mM NaCl, 5 mM phenylmethylsulfonyl fluoride, 1 mM sodium orthovanadate). The lysates were pushed through a 25 gauge syringe and cleared by centrifugation at max speed at 4 degrees for 10 min. Equal amounts of lysates were immunoprecipitated with Ra1GDS RBD conjugated agarose beads for 45 minutes at 4° C. After washing the beads where resuspended with sample buffer and boiled for 5 minutes. The immunoprecipitates were separated by SDS-Page as mentioned above, transferred to PVDF membranes, probed with the anti-Rap1 antibody and horse radish peroxidase-conjugated secondary antibody. After washing the membranes were developed by autoradiography.
To evaluate whether Rap1A was activated in response to CD151 clustering as well as ALCAM-ALCAM ligation, HEp3 cells were treated with 1A5 or seeded on ALCAM-FC for up to 48 hrs. Active Rap1A in the cells was evaluated by immunblotting of GTP-bound Rap1A affinity purified from lysates with Ra1-GDS beads.

HEp3 cells = assay: Transwell migration with pathway inhibitors, with or without anti-CD151 antibody 1A5; type: cell-based, human
Description: In Vitro Transwell Migration: Tumor cells in a single cell suspension were plated into the top chamber of 8 μm transwell (Costar) inserts in the presence of serum free/insulin free media. Cell culture media containing 10% fetal bovine serum was placed in the bottom chamber to serve as a chemoattractant. Migration assays were carried out for 12 hrs in a 37° C. cell culture incubator containing 5% CO2. The top surface of the inserts was cleaned with a cotton swab soaked with PBS to remove the non-migrated cells. The transwell inserts were subsequently fixed in methanol and stained with 0.2% crystal violet. The number of migrated cells was counted in 3 independent fields under 20× magnification with a light microscope.
Transwell migration assays were performed in the presence or absence of each inhibitor together with or without the anti-CD151 antibody 1A5.

PC3 cells [1] = assay: ALCAM expression in response to TGFβ (RT-PCR, Western blot); type: cell-based, human
Description: (§1) SDS-PAGE and immunoblotting. Cells (2.5×10^5) were plated in 6-well dishes. After 24 h, cells were serum starved in Opti-MEM for 16 h and then treated in the presence or absence of indicated growth factors or inhibitors, for 48 h. After that, the cells were lysed in TNE Lysis Buffer (20 mM Tris-Cl [pH 7.4], 0.5 mM EDTA, 1% Triton X-100, 150 mM NaCl, protease inhibitor cocktail (sigma), 1 mM phenylmethylsulfonyl fluoride). Total protein in the lysates was quantified using BCA assay (BioRad). Conditioned media samples were concentrated with microcon centrifugal filters (Millipore) following manufacturers protocol, which were eluted directly in 5× sample buffer for Western blot analysis. Protein loading for conditioned-medium samples for Western blot analysis was adjusted according to the total protein in cell lysates. Conditioned media and total protein was subjected to SDS-PAGE and electrophoretic transfer to polyvinylidene difluoride membranes (Immobilon P, Millipore, Inc., Bedford, Mass.). Immunodetection was done by conventional chemiluminescence
(§2) The mRNA samples were prepared from tumor cells lysed in TRI Reagent (Ambion) and purified using phenol extraction, followed by real-time polymerase chain reaction (RT-PCR). The following qPCR primers were used ALCAM, […] (forward) and […] (reverse); ADAM17, […] (forward) and […] (reverse); and glyceraldehyde-3-phosphate dehydrogenase, […] (forward) and TTCCCCATGGTGTCTGAGC (reverse).
(§3) ALCAM is proteolytically shed from PC3 cells (FIG. 21). Absence of the cytoplasmic tail confirms that the ectodomain is shed (FIG. 21A). Moreover, ALCAM is absent from PC3-derived exosomes ensuring that the ectodomain is shed and not released with cell-derived microparticles (FIG. 21B). Since prostate cancer disseminates predominantly to bone we selected cytokines thought to be involved in this process, including TGFβ. […] To further explore the response to exogenous stimulation with TGFβ, ALCAM expression in PC3 cells was compared to ALCAM expression in LNCaP cells which are unable to respond to the cytokine because they lack TGFβ receptor type I (FIGS. 23B and 23C). […] TGFβ-induced expression in PC3 cells could be abrogated with the small molecule inhibitor SB431542 (FIG. 23D, 10 μm; Sigma) while TGFβ-induced ALCAM mRNA and protein expression could be restored in LNCaP cells when the cells were transfected with dominant-active TGFβ receptor type I (FIGS. 23E and 23F).

PC3 cells [2] = assay: ALCAM shedding in conditioned media of cytokine-treated cells (ELISA); type: cell-based, human; conditions: PC3 concentrated conditioned media; 8 agents tested
LNCaP cells = assay: ALCAM expression in response to TGFβ (RT-PCR, Western blot); type: cell-based, human; conditions: lack TGFβ receptor type I
Description: as §1, §2, §3

[3] = In vivo ALCAM serum half-life; conditions: serum injected retrorbitally in ALCAM KO mice; ELISA
Description: Serum was harvested from ALCAM wild-type, mixed background, mice and pooled. Combined serum collected from WT mice was injected retrorbitally in ALCAM KO mice (100 μl/mouse). ALCAM KO mice were pre-bled via saphenous vein bleed, and then bled at 10 mins, 2 hours, 4 hours, 24 hours and 48 hours (n=2/time point; total n=10). WT pooled serum was used as ELISA control to quantitatively determine ALCAM serum half-life.
To determine if tumor-derived ALCAM is the source of elevated circulating ALCAM, species-specific antibodies were used to monitor circulating levels of both host (mouse) ALCAM and tumor (human) ALCAM longitudinally during orthotopic and subcutaneous growth of PC3 cells (FIG. 24). The half-life of human ALCAM in the circulation of its mouse host was determined to confirm that tumor-derived ALCAM could act as a stable biomarker in vivo (FIG. 25).

[4] = HEp3 cells, ± anti-CD151 antibody 1A5

In the case of `COc1ccc2c(c[n+](C)c3c4cc5c(cc4ccc23)OCO5)c1OC` [Chelerythrin], the “Rap1A activation by 1A5 after PKCα disruption” value (Rap1A) is reported as 1A5 was unable to promote Rap1A activation and the “Transwell migration in the presence or absence of inhibitor, with or without 1A5” value (HEp3 cells; [4]) is reported as “allowed for migration of untreated cells but prevented 1A5 from inhibiting migration”.

In the case of `COC(=O)[C@H](CC(C)C)NC(=O)c1ccc(NC[C@@H](N)CS)cc1-c1cccc2ccccc12` [GGTI-298], the “Transwell migration in the presence or absence of inhibitor, with or without 1A5” value (HEp3 cells; [4]) is reported as “allowed for migration of untreated cells but prevented 1A5 from inhibiting migration”.

For `NC(=O)c1ccc(-c2nc(-c3ccc4c(c3)OCO4)c(-c3ccccn3)[nH]2)cc1` [SB431542], the “TGFβ-induced ALCAM expression” value (PC3 cells [1]; 10 μm inhibitor, 10 ng/ml TGFβ, 48 hrs) was “abrogated”.

In the case of `N#CC(=C(/N)Sc1ccccc1N)/C(C#N)=C(\N)Sc1ccccc1N` [U0126], the “Transwell migration in the presence or absence of inhibitor, with or without 1A5” value (HEp3 cells) is reported as “inhibited migration independent of anti-CD151 antibody treatment”.

In the case of TGFβ, the ALCAM shedding (PC3 cells [2]) is reported as “promoted ALCAM shedding relative to overall total protein increase”, the “response of ALCAM expression to TGFβ” value (LNCaP cells) is reported as “did not respond” and the “ALCAM gene transcription (quantitative RT-PCR)” value (PC3 cells [1]; 10 ng/ml TGFβ, 48 hrs) is reported as “able to induce ALCAM gene transcription in PC3”. The “ALCAM protein expression and ectodomain shedding (Western blot)” value (PC3 cells [1]; cell lysate and conditioned media) was “increased levels of ALCAM protein expression and ectodomain shedding”.

B1: ALCAM: circulating soluble Activated Leukocyte Cell Adhesion Molecule (shed ectodomain) in serum (protein, UniProt Q13740 28-527, looked up)
extracellular domain: WYTVNSAYGDTIIIPCRLDVPQNLMFGKWKYEKPDGSPVFIAFRSSTKKSVQYDDVPEYKDRLNLSENYTLSISNARISDEKRFVCMLVTEDNVFEAPTIVKVFKQPSKPEIVSKALFLETEQLKKLGDCISEDSYPDGNITWYRNGKVLHPLEGAVVIIFKKEMDPVTQLYTMTSTLEYKTTKADIQMPFTCSVTYYGPSGQKTIHSEQAVFDIYYPTEQVTIQVLPPKNAIKEGDNITLKCLGNGNPPPEEFLFYLPGQPEGIRSSNTYTLTDVRRNATGDYKCSLIDKKSMIASTAITVHYLDLSLNPSGEVTRQIGDALPVSCTISASRNATVVWMKDNIRLRSSPSFSSLHYQDAGNYVCETALQEVEGLKKRESLTLIVEGKPQIKMTKKTDPSGLSKTIICHVEGFPKPAIQWTITGSGSVINQTEESPYINGRYYSKIIISPEENVTLTCTAENQLERTVNSLNVSAISIPEHDEADEISDENREKVNDQAK
modifications: extracellular domain shed soluble form
B1 showed a half-life in circulation [3] of 17 h.
